Tests used:
giant foxtail = test: Test B pre/postemergence giant foxtail; format: in vivo, Setaria faberii
Procedure, shortened: (§1)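 Response is a visual 0-to-10 score relative to untreated plants, where 0 means no effect and 10 means complete control, taken twelve to sixteen days after application. Treatments went onto soil at planting and onto foliage of 1- to 4-leaf plants, using a surfactant-containing non-phytotoxic solvent.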

pigweed = test: Test B pre/postemergence pigweed; format: in vivo, Amaranthus retroflexus
Procedure, shortened: as §1

blackgrass = test: Test B pre/postemergence blackgrass; format: in vivo, Alopecurus myosuroides
Procedure, shortened: as §1

surinam grass = test: Test B pre/postemergence surinam grass; format: in vivo, Brachiaria decumbens
Procedure, shortened: as §1

morningglory = test: Test B pre/postemergence morningglory; format: in vivo, Ipomoea hederacea
Procedure, shortened: as §1

purple nutsedge = test: Test B pre/postemergence purple nutsedge; format: in vivo, Cyperus rotundus
Procedure, shortened: as §1

smallflower flatsedge = test: Test B flood test smallflower flatsedge; format: in vivo, Cyperus difformis
Procedure, shortened: (§2)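 Plants were grown to the 2-leaf stage before treatment with test chemical, then held in a greenhouse for twelve to sixteen days. Injury was visually rated against untreated controls on a 0–10 scale, where 0 is no effect and 10 is complete control.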

duck salad = test: Test B flood test duck salad; format: in vivo, Heteranthera limosa
Procedure, shortened: as §2

corn = test: Test B pre/postemergence corn; format: in vivo, Zea mays
Procedure, shortened: as §1

crabgrass = test: Test B pre/postemergence crabgrass; format: in vivo, Digitaria sanguinalis
Procedure, shortened: as §1

wild oat = test: Test B pre/postemergence wild oat; format: in vivo, Avena fatua
Procedure, shortened: as §1

cocklebur = test: Test B pre/postemergence cocklebur; format: in vivo, Xanthium strumarium
Procedure, shortened: as §1

bedstraw = test: Test B pre/postemergence bedstraw; format: in vivo, Galium aparine
Procedure, shortened: as §1

sugar beet = test: Test B pre/postemergence sugar beet; format: in vivo, Beta vulgaris
Procedure, shortened: as §1

soybean = test: Test B pre/postemergence soybean; format: in vivo, Glycine max
Procedure, shortened: as §1

rice = test: Test B flood test rice; format: in vivo, Oryza sativa
Procedure, shortened: as §2

[1] = Postemergence, Rate 62 g/ha, scale 0 to 10, 0 is no effect, 10 is complete control
[2] = Postemergence, Rate 250 g/ha, scale 0 to 10, 0 no effect, 10 complete control
[3] = Preemergence, Rate 62 g/ha, scale 0 to 10 (0 no effect, 10 complete control)
[4] = Preemergence, Rate 125 g/ha, scale 0 to 10 (0 no effect, 10 complete control)
[5] = Preemergence, Rate 250 g/ha, scale of 0 to 10 where 0 is no effect and 10 is complete control
[6] = Preemergence, Rate 500 g/ha, scale 0 (no effect) to 10 (complete control)
[7] = Rate 125 g/ha, Postemergence, scale 0 to 10, 0 no effect, 10 complete control
[8] = Rate 500 g/ha, Postemergence, scale 0 to 10, 0 no effect, 10 complete control
[9] = Rate 62 g/ha, headed Pre-emergence (flood test species), scale 0 to 10 (0 no effect, 10 complete control)
[10] = Rate 125 g/ha, Pre-emergence, flood test species, scale 0 to 10 where 0 is no effect and 10 is complete control
[11] = Rate 250 g/ha, headed Pre-emergence (flood test species), scale 0 to 10 (0 no effect, 10 complete control)
[12] = Rate 500 g/ha, headed Pre-emergence (flood test species), scale 0 to 10 (0 no effect, 10 complete control)

CCN(Cc1ccccc1)C(=O)n1oc(=O)n(-c2c(C)cccc2C)c1=O [Compound 70]
0: Giant foxtail plant response rating (giant foxtail; [1]) | Giant foxtail plant response rating (giant foxtail; [2]) | Giant foxtail plant response rating (giant foxtail; [3]) | Plant response rating, Giant foxtail (giant foxtail; [4]) | Plant response rating, Giant foxtail (giant foxtail; [5]) | Giant foxtail plant response rating (giant foxtail; [6]) | Giant foxtail plant response rating (giant foxtail; [7]) | Giant foxtail plant response rating (giant foxtail; [8]) | Redroot pigweed plant response rating (pigweed; [1]) | Redroot pigweed plant response rating (pigweed; [2]) | Redroot pigweed plant response rating (pigweed; [3]) | Plant response rating, Redroot pigweed (pigweed; [4]) | Plant response rating, Redroot pigweed (pigweed; [5]) | Redroot pigweed plant response rating (pigweed; [6]) | Redroot pigweed plant response rating (pigweed; [7]) | Redroot pigweed plant response rating (pigweed; [8]) | Blackgrass plant response rating (blackgrass; [1]) | Blackgrass plant response rating (blackgrass; [2]) | Blackgrass plant response rating (blackgrass; [3]) | Plant response rating, Blackgrass (blackgrass; [4]) | Plant response rating, Blackgrass (blackgrass; [5]) | Blackgrass plant response rating (blackgrass; [6]) | Blackgrass plant response rating (blackgrass; [7]) | Blackgrass plant response rating (blackgrass; [8]) | B. signalgrass plant response rating (surinam grass; [1]) | B. signalgrass plant response rating (surinam grass; [2]) | B. signalgrass plant response rating (surinam grass; [3]) | Plant response rating, B. signalgrass (surinam grass; [4]) | Plant response rating, B. signalgrass (surinam grass; [5]) | B. signalgrass plant response rating (surinam grass; [6]) | B. signalgrass plant response rating (surinam grass; [7]) | B. signalgrass plant response rating (surinam grass; Rate 500 g/ha, Postemergence, scale of 0 to 10 where 0 is no effect and 10 is complete control) | Morningglory plant response rating (morningglory; [1]) | Morningglory plant response rating (morningglory; [2]) | Morningglory plant response rating (morningglory; [3]) | Plant response rating, Morningglory (morningglory; [4]) | Plant response rating, Morningglory (morningglory; [5]) | Morningglory plant response rating (morningglory; [6]) | Morningglory plant response rating (morningglory; [7]) | Morningglory plant response rating (morningglory; [8]) | Nutsedge plant response rating (purple nutsedge; [1]) | Nutsedge plant response rating (purple nutsedge; [2]) | Nutsedge plant response rating (purple nutsedge; [3]) | Plant response rating, Nutsedge (purple nutsedge; [4]) | Plant response rating, Nutsedge (purple nutsedge; [5]) | Nutsedge plant response rating (purple nutsedge; [6]) | Nutsedge plant response rating (purple nutsedge; [7]) | Nutsedge plant response rating (purple nutsedge; [8]) | S. Flatsedge plant response rating (smallflower flatsedge; [9]) | S. Flatsedge plant response rating (smallflower flatsedge; [10]) | S. Flatsedge plant response rating (smallflower flatsedge; [11]) | Plant response rating, S. Flatsedge (smallflower flatsedge; [12]) | Ducksalad plant response rating (duck salad; [9]) | Ducksalad plant response rating (duck salad; [10]) | Ducksalad plant response rating (duck salad; [11]) | Plant response rating, Ducksalad (duck salad; [12]) | Corn plant response rating (corn; [1]) | Corn plant response rating (corn; [2]) | Corn plant response rating (corn; [3]) | Plant response rating, Corn (corn; [4]) | Plant response rating, Corn (corn; [5]) | Corn plant response rating (corn; [6]) | Corn plant response rating (corn; [7]) | Corn plant response rating (corn; [8]) | Crabgrass plant response rating (crabgrass; [1]) | Crabgrass plant response rating (crabgrass; [2]) | Crabgrass plant response rating (crabgrass; [3]) | Plant response rating, Crabgrass (crabgrass; [4]) | Plant response rating, Crabgrass (crabgrass; [5]) | Crabgrass plant response rating (crabgrass; [6]) | Crabgrass plant response rating (crabgrass; [7]) | Crabgrass plant response rating (crabgrass; [8]) | Wild oats plant response rating (wild oat; [1]) | Wild oats plant response rating (wild oat; [2]) | Wild oats plant response rating (wild oat; [3]) | Plant response rating, Wild oats (wild oat; [4]) | Plant response rating, Wild oats (wild oat; [5]) | Wild oats plant response rating (wild oat; [6]) | Wild oats plant response rating (wild oat; [7]) | Wild oats plant response rating (wild oat; [8]) | Cocklebur plant response rating (cocklebur; [1]) | Cocklebur plant response rating (cocklebur; [2]) | Cocklebur plant response rating (cocklebur; [3]) | Plant response rating, Cocklebur (cocklebur; [4]) | Plant response rating, Cocklebur (cocklebur; [5]) | Cocklebur plant response rating (cocklebur; [6]) | Cocklebur plant response rating (cocklebur; [7]) | Cocklebur plant response rating (cocklebur; [8]) | Bedstraw plant response rating (bedstraw; [1]) | Bedstraw plant response rating (bedstraw; [2]) | Bedstraw plant response rating (bedstraw; [3]) | Plant response rating, Bedstraw (bedstraw; [4]) | Plant response rating, Bedstraw (bedstraw; [5]) | Bedstraw plant response rating (bedstraw; [6]) | Bedstraw plant response rating (bedstraw; [7]) | Bedstraw plant response rating (bedstraw; [8]) | Sugarbeets plant response rating (sugar beet; [1]) | Sugarbeets plant response rating (sugar beet; [2]) | Sugarbeets plant response rating (sugar beet; [3]) | Plant response rating, Sugarbeets (sugar beet; [4]) | Plant response rating, Sugarbeets (sugar beet; [5]) | Sugarbeets plant response rating (sugar beet; [6]) | Sugarbeets plant response rating (sugar beet; [7]) | Sugarbeets plant response rating (sugar beet; [8]) | Soybean plant response rating (soybean; [1]) | Soybean plant response rating (soybean; [2]) | Soybean plant response rating (soybean; [3]) | Plant response rating, Soybean (soybean; [4]) | Plant response rating, Soybean (soybean; [5]) | Soybean plant response rating (soybean; [6]) | Soybean plant response rating (soybean; [7]) | Soybean plant response rating (soybean; [8]) | Rice plant response rating (rice; [9]) | Rice plant response rating (rice; [10]) | Rice plant response rating (rice; [11]) | Plant response rating, Rice (rice; [12])

From patent US6737383B1, “Herbicidal oxadiazolidines” (priority 1999, dated 2004)
